The results in this text go back to patent EP1175467B1, “STABILIZED ADHESIVE COMPOSITIONS CONTAINING HIGHLY SOLUBLE, RED-SHIFTED, PHOTOSTABLE BENZOTRIAZOLE UV ABSORBERS AND LAMINATED ARTICLES DERIVED THEREFROM” (Ciba Specialty Chemicals Holding Inc., priority 1999, dated 2000).

The data set is described as follows: Benzotriazole solubility in adhesive GELVA 263 (observed crystallization after solvent evaporation). To be noted: in GELVA 263 polyacrylate adhesive; approximate maximum concentration, weight of total benzotriazole added to GELVA 263 as is.

Method: To measure this solubility a number of structurally different benzotriazoles are added to a typical adhesive GELVA® 263 (Solutia) which is a 44.5% solution of a polyacrylate in a mixture of ethyl acetate and hexane. The polyacrylate is a copolymer of methyl methacrylate, 2-ethylhexyl methacrylate and glycidyl methacrylate.
The test benzotriazole is dissolved in 5 mL of ethyl acetate, toluene or a mixture of ethyl acetate and toluene. To the solution is added 5 g of GELVA® 263 and 2-3 mL of the resulting solution is placed into individual watch glasses. Solubility is then evaluated based upon observed crystallization once the solvent has evaporated. Observations start after several hours and then continue over a period of several weeks.
Solubilities are reported in weight of total benzotriazole added to GELVA® 263 as is.
Following the procedure of Example 3, the solubility in GELVA® 263 (Solutia) of various mixtures of benzotriazoles is determined. […]
The test compound is dissolved in 5 mL of ethyl acetate, toluene or a mixture of ethyl acetate and toluene. […] Solubility is then evaluated based upon observed crystallization once the solvent has evaporated. […]

`COC(=O)C[S+]([O-])c1ccc2nn(-c3cc(C(C)(C)C)cc(C(C)(C)C)c3O)nc2c1` (centres unmarked) [J, 5-methoxycarbonylmethylsulfinyl-2-(2-hydroxy-3,5-di-tert-butylphenyl)-2H-benzotriazole]: the “Solubility without Crystallization (%)” value was 8.0%.
Consider `COC(=O)CCc1cc(-n2nc3ccc(S(=O)(=O)c4ccccc4)cc3n2)c(O)c(C(C)(C)C)c1` [K, methyl 3-(5-phenylsulfonyl-2H-benzotriazol-2-yl)-5-tert-butyl-4-hydroxyhydrocinnamate], for which the “Solubility without Crystallization (%)” value worked out at 11.3%.
